Assay results reported in patent US20250011368A1, “DLL3 TARGETING PEPTIDES AND CONSTRUCTS THEREOF” (MARIANA ONCOLOGY INC., priority 2023, published 2025).
Bridge positions count the residues as written; N and C are the ends. Square brackets hold non-standard residues; d marks the D form. Peptide text beside a SMILES is read from it. * marks the point of attachment. DOTA = O=C(O)CN1CCN(CC(=O)O)CCN(CC(=O)*)CCN(CC(=O)O)CC1; Trp(5-F) = N[C@@H](Cc1c[nH]c2ccc(F)cc12)C(=O)O; Phe(2-CF3) = N[C@@H](Cc1ccccc1C(F)(F)F)C(=O)O; Trp(7-aza) = N[C@@H](Cc1c[nH]c2ncccc12)C(=O)O; Pro(trans-4-F) = O=C(O)[C@@H]1C[C@@H](F)CN1; Phe(4-F) = N[C@@H](Cc1ccc(F)cc1)C(=O)O; Gly(4-THP) = N[C@H](C(=O)O)C1CCOCC1; Nva(3-Et) = CCC(CC)[C@H](N)C(=O)O; Cha = N[C@@H](CC1CCCCC1)C(=O)O; Cba = N[C@@H](CC1CCC1)C(=O)O; Chg = N[C@H](C(=O)O)C1CCCCC1; Tle = CC(C)(C)[C@H](N)C(=O)O; Nle = CCCC[C@H](N)C(=O)O; Aze = O=C(O)[C@@H]1CCN1

target: T1, human DLL3 (Homo sapiens, UniProt Q9NYJ7); assay: Affinity determination by Surface Plasmon Resonance (SPR); assay type: binding; details: 25° C., biotinylated human DLL3 immobilized on streptavidin sensor chip, 1:1 binding model; read-out: SPR KD
T1 sequence (Q9NYJ7 27-618): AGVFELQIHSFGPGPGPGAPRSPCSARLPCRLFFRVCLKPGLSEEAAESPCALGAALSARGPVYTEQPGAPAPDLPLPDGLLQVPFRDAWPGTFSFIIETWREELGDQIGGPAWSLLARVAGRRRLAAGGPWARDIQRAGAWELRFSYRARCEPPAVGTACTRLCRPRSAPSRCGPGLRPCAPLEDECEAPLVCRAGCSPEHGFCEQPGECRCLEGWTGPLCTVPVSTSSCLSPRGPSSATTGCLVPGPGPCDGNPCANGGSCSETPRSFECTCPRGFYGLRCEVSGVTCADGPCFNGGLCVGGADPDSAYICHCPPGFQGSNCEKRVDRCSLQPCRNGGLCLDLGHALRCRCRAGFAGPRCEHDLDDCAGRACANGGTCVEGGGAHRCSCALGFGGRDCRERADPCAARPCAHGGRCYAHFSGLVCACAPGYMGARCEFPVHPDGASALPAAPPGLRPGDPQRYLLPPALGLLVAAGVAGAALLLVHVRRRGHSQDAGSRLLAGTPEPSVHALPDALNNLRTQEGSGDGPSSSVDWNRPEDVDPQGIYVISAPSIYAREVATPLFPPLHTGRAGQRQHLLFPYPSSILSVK
How it was run: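 Kinetic and affinity constants were derived by fitting sensorgrams to a 1:1 binding model. Graded compound concentrations flowed at 100 μL/minute in 20 mM phosphate running buffer with 2% DMSO over streptavidin-immobilized biotinylated human DLL3, reference-subtracted.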

Compound | Kd
CC(=O)N[C@@H](Cc1c[nH]c2ccc(F)cc12)C(=O)N[C@H](C(=O)N[C@H](C(=O)N[C@H]1CSSC[C@@H](C(=O)N[C@@H](Cc2c[nH]c3ncccc23)C(=O)N2CC[C@H]2C(=O)N[C@H](CCCCNC(=O)CN2CCN(CC(=O)O)CCN(CC(=O)O)CCN(CC(=O)O)CC2)C(N)=O)NC(=O)[C@H](CC(=O)O)NC(=O)[C@H](Cc2cnc[nH]2)NC(=O)[C@H](Cc2ccc(F)cc2)NC(=O)[C@H](CC(N)=O)NC(=O)[C@H](CC(N)=O)NC1=O)C1CCCCC1)[C@@H](C)O [compound 127, Ac-(5Fluoro-W)-T-(Chg)-C(3)-N-N-(4Fluoro-F)-H-D-C(3)-(7Aza-W)-(Aze)-[D-Lys(DOTA)]-NH2] (Ac-[Trp(5-F)]T[Chg]CNN[Phe(4-F)]HDC[Trp(7-aza)][Aze][dK](DOTA)-NH2; disulfide 4-10) | 10 to 100 nM
CC(=O)N[C@@H](Cc1c[nH]c2ccc(F)cc12)C(=O)N[C@H](C(=O)N[C@@H](Cc1ccccc1C(F)(F)F)C(=O)N[C@H]1CSSC[C@@H](C(=O)N[C@@H](Cc2c[nH]c3ncccc23)C(=O)N2CC[C@H]2C(=O)N[C@H](CCCCNC(=O)CN2CCN(CC(=O)O)CCN(CC(=O)O)CCN(CC(=O)O)CC2)C(N)=O)NC(=O)[C@H](CC(=O)O)NC(=O)[C@H](Cc2cnc[nH]2)NC(=O)[C@H](Cc2ccc(F)cc2)NC(=O)[C@H](CC(N)=O)NC(=O)[C@H](CC(N)=O)NC1=O)[C@@H](C)O [compound 128, Ac-(5Fluoro-W)-T-(2CF3-F)-C(3)-N-N-(4Fluoro-F)-H-D-C(3)-(7Aza-W)-(Aze)-[D-Lys(DOTA)]-NH2] (Ac-[Trp(5-F)]T[Phe(2-CF3)]CNN[Phe(4-F)]HDC[Trp(7-aza)][Aze][dK](DOTA)-NH2; disulfide 4-10) | 1 to 10 nM
CC(=O)N[C@@H](Cc1c[nH]c2ccc(F)cc12)C(=O)N[C@H](C(=O)N[C@H](C(=O)N[C@H]1CSSC[C@@H](C(=O)N[C@@H](Cc2c[nH]c3ncccc23)C(=O)N2C[C@H](F)C[C@H]2C(=O)N[C@H](CCCCNC(=O)CN2CCN(CC(=O)O)CCN(CC(=O)O)CCN(CC(=O)O)CC2)C(N)=O)NC(=O)[C@H](CC(=O)O)NC(=O)[C@H](Cc2cnc[nH]2)NC(=O)[C@H](Cc2ccc(F)cc2)NC(=O)[C@H](CC(N)=O)NC(=O)[C@H](CC(N)=O)NC1=O)C(C)(C)C)[C@@H](C)O [compound 129, Ac-(5Fluoro-W)-T-(Tbg)-C(3)-N-N-(4Fluoro-F)-H-D-C(3)-(7Aza-W)-(trans4Fluoro-P)-[D-Lys(DOTA)]-NH2] (Ac-[Trp(5-F)]T[Tle]CNN[Phe(4-F)]HDC[Trp(7-aza)][Pro(trans-4-F)][dK](DOTA)-NH2; disulfide 4-10) | 10 to 100 nM
CCC(CC)[C@H](NC(=O)[C@@H](NC(=O)[C@H](Cc1c[nH]c2ccc(F)cc12)NC(C)=O)[C@@H](C)O)C(=O)N[C@H]1CSSC[C@@H](C(=O)N[C@@H](Cc2c[nH]c3ncccc23)C(=O)N2C[C@H](F)C[C@H]2C(=O)N[C@H](CCCCNC(=O)CN2CCN(CC(=O)O)CCN(CC(=O)O)CCN(CC(=O)O)CC2)C(N)=O)NC(=O)[C@H](CC(=O)O)NC(=O)[C@H](Cc2c[nH]cn2)NC(=O)[C@H](Cc2ccc(F)cc2)NC(=O)[C@H](CC(N)=O)NC(=O)[C@H](CC(N)=O)NC1=O [compound 130, Ac-(5Fluoro-W)-T-(Env)-C(3)-N-N-(4Fluoro-F)-H-D-C(3)-(7Aza-W)-(trans4Fluoro-P)-[D-Lys(DOTA)]-NH2] (Ac-[Trp(5-F)]T[Nva(3-Et)]CNN[Phe(4-F)]HDC[Trp(7-aza)][Pro(trans-4-F)][dK](DOTA)-NH2; disulfide 4-10) | 1 to 10 nM
CC(=O)N[C@@H](Cc1c[nH]c2ccc(F)cc12)C(=O)N[C@H](C(=O)N[C@H](C(=O)N[C@H]1CSSC[C@@H](C(=O)N[C@@H](Cc2c[nH]c3ncccc23)C(=O)N2C[C@H](F)C[C@H]2C(=O)N[C@H](CCCCNC(=O)CN2CCN(CC(=O)O)CCN(CC(=O)O)CCN(CC(=O)O)CC2)C(N)=O)NC(=O)[C@H](CC(=O)O)NC(=O)[C@H](Cc2cnc[nH]2)NC(=O)[C@H](Cc2ccc(F)cc2)NC(=O)[C@H](CC(N)=O)NC(=O)[C@H](CC(N)=O)NC1=O)C1CCOCC1)[C@@H](C)O [compound 131, Ac-(5Fluoro-W)-T-(THPG)-C(3)-N-N-(4Fluoro-F)-H-D-C(3)-(7Aza-W)-(trans4Fluoro-P)-[D-Lys(DOTA)]-NH2] (Ac-[Trp(5-F)]T[Gly(4-THP)]CNN[Phe(4-F)]HDC[Trp(7-aza)][Pro(trans-4-F)][dK](DOTA)-NH2; disulfide 4-10) | 1 to 10 nM
CCCC[C@H](NC(=O)[C@@H](NC(=O)[C@H](Cc1c[nH]c2ccc(F)cc12)NC(C)=O)[C@@H](C)O)C(=O)N[C@H]1CSSC[C@@H](C(=O)N[C@@H](Cc2c[nH]c3ncccc23)C(=O)N2C[C@H](F)C[C@H]2C(=O)N[C@H](CCCCNC(=O)CN2CCN(CC(=O)O)CCN(CC(=O)O)CCN(CC(=O)O)CC2)C(N)=O)NC(=O)[C@H](CC(=O)O)NC(=O)[C@H](Cc2cnc[nH]2)NC(=O)[C@H](Cc2ccc(F)cc2)NC(=O)[C@H](CC(N)=O)NC(=O)[C@H](CC(N)=O)NC1=O [compound 132, Ac-(5Fluoro-W)-T-(Nle)-C(3)-N-N-(4Fluoro-F)-H-D-C(3)-(7Aza-W)-(trans4Fluoro-P)-[D-Lys(DOTA)]-NH2] (Ac-[Trp(5-F)]T[Nle]CNN[Phe(4-F)]HDC[Trp(7-aza)][Pro(trans-4-F)][dK](DOTA)-NH2; disulfide 4-10) | 1 to 10 nM
CC(=O)N[C@@H](Cc1c[nH]c2ccc(F)cc12)C(=O)N[C@H](C(=O)N[C@@H](CC1CCCCC1)C(=O)N[C@H]1CSSC[C@@H](C(=O)N[C@@H](Cc2c[nH]c3ncccc23)C(=O)N2C[C@H](F)C[C@H]2C(=O)N[C@H](CCCCNC(=O)CN2CCN(CC(=O)O)CCN(CC(=O)O)CCN(CC(=O)O)CC2)C(N)=O)NC(=O)[C@H](CC(=O)O)NC(=O)[C@H](Cc2cnc[nH]2)NC(=O)[C@H](Cc2ccc(F)cc2)NC(=O)[C@H](CC(N)=O)NC(=O)[C@H](CC(N)=O)NC1=O)[C@@H](C)O [compound 133, Ac-(5Fluoro-W)-T-(CHA)-C(3)-N-N-(4Fluoro-F)-H-D-C(3)-(7Aza-W)-(trans4Fluoro-P)-[D-Lys(DOTA)]-NH2] (Ac-[Trp(5-F)]T[Cha]CNN[Phe(4-F)]HDC[Trp(7-aza)][Pro(trans-4-F)][dK](DOTA)-NH2; disulfide 4-10) | 1 to 10 nM
CC(=O)N[C@@H](Cc1c[nH]c2ccc(F)cc12)C(=O)N[C@H](C(=O)N[C@@H](CC1CCC1)C(=O)N[C@H]1CSSC[C@@H](C(=O)N[C@@H](Cc2c[nH]c3ncccc23)C(=O)N2C[C@H](F)C[C@H]2C(=O)N[C@H](CCCCNC(=O)CN2CCN(CC(=O)O)CCN(CC(=O)O)CCN(CC(=O)O)CC2)C(N)=O)NC(=O)[C@H](CC(=O)O)NC(=O)[C@H](Cc2cnc[nH]2)NC(=O)[C@H](Cc2ccc(F)cc2)NC(=O)[C@H](CC(N)=O)NC(=O)[C@H](CC(N)=O)NC1=O)[C@@H](C)O [compound 134, Ac-(5Fluoro-W)-T-(CBA)-C(3)-N-N-(4Fluoro-F)-H-D-C(3)-(7Aza-W)-(trans4Fluoro-P)-[D-Lys(DOTA)]-NH2] (Ac-[Trp(5-F)]T[Cba]CNN[Phe(4-F)]HDC[Trp(7-aza)][Pro(trans-4-F)][dK](DOTA)-NH2; disulfide 4-10) | 1 to 10 nM
